From PubChem BioAssay AID2060616 (Molecular Pharmacology Branch, DTP, NCI, 2025)

Tested on: 377384-186-R-J1-PDC complex spheroid viability
Assay: Anticancer human tumor 377384-186-R-J1-PDC patient-derived pancreatic carcinoma cell line growth inhibition [CLK]
Conditions: for IC50: curve of first compound; for viability, T/C: stronger effect = lower value
Procedure, shortened: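 Multi-cell-type spheroids combined patient-derived tumor cells with HUVEC endothelial cells and human mesenchymal stem cells. Paired agents were dosed in half-log steps down from about clinical Cmax, or from 10 microM where Cmax was unknown.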

[1] = second compound 0.0316 µM, first compound 0.0316 µM
[2] = second compound 0.0316 µM, first compound 0.1 µM
[3] = second compound 0.0316 µM, first compound 0.316 µM
[4] = second compound 0.0316 µM, first compound 1 µM
[5] = second compound 0.0316 µM, first compound 3.16 µM
[6] = second compound 0.0316 µM, first compound 10 µM
[7] = second compound 0.1 µM, first compound 0.0316 µM
[8] = second compound 0.1 µM, first compound 0.1 µM
[9] = second compound 0.1 µM, first compound 0.316 µM
[10] = second compound 0.1 µM, first compound 1 µM
[11] = second compound 0.1 µM, first compound 3.16 µM
[12] = second compound 0.1 µM, first compound 10 µM
[13] = second compound 0.316 µM, first compound 0.0316 µM
[14] = second compound 0.316 µM, first compound 0.1 µM
[15] = second compound 0.316 µM, first compound 0.316 µM
[16] = second compound 0.316 µM, first compound 1 µM
[17] = second compound 0.316 µM, first compound 3.16 µM
[18] = second compound 0.316 µM, first compound 10 µM
[19] = second compound 1 µM, first compound 0.0316 µM
[20] = second compound 1 µM, first compound 0.1 µM
[21] = second compound 1 µM, first compound 0.316 µM
[22] = second compound 1 µM, first compound 1 µM
[23] = second compound 1 µM, first compound 3.16 µM
[24] = second compound 1 µM, first compound 10 µM
[25] = second compound 3.16 µM, first compound 0.0316 µM
[26] = second compound 3.16 µM, first compound 0.1 µM
[27] = second compound 3.16 µM, first compound 0.316 µM
[28] = second compound 3.16 µM, first compound 1 µM
[29] = second compound 3.16 µM, first compound 3.16 µM
[30] = second compound 3.16 µM, first compound 10 µM
[31] = second compound 10 µM, first compound 0.0316 µM
[32] = second compound 10 µM, first compound 0.1 µM
[33] = second compound 10 µM, first compound 0.316 µM
[34] = second compound 10 µM, first compound 1 µM
[35] = second compound 10 µM, first compound 3.16 µM
[36] = second compound 10 µM, first compound 10 µM
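Also: spheroids exposed to agents for 7 days before reading.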
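For viability, T/C in this document: luminescence signal used as a stand-in for viable cells.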

## C=CC(=O)Nc1cc(Nc2nccc(-c3cn(C)c4ccccc34)n2)c(OC)cc1N(C)CCN(C)C + CN1CCN(c2cc(C(=O)Nc3cc4cc(-c5cnn(C)c5)ccc4cn3)ccn2)CC1
Second compound 0.0316 µM
  IC50: > 0.3 µM
Second compound 0.1 µM
  IC50: > 0.3 µM
Second compound 0.316 µM
  IC50: < 0.000949 µM
Second compound 1 µM
  IC50: < 0.000949 µM
Second compound 3.16 µM
  IC50: < 0.000949 µM
Second compound 10 µM
  IC50: < 0.000949 µM
Second compound 0.0316 µM, first compound 0.000949 µM
  viability, T/C: 91.6%
Second compound 0.0316 µM, first compound 0.003 µM
  viability, T/C: 100%
Second compound 0.0316 µM, first compound 0.00949 µM
  viability, T/C: 90.7%
Second compound 0.0316 µM, first compound 0.03 µM
  viability, T/C: 93.6%
Second compound 0.0316 µM, first compound 0.0949 µM
  viability, T/C: 79.5%
Second compound 0.0316 µM, first compound 0.3 µM
  viability, T/C: 76.3%
Second compound 0.1 µM, first compound 0.000949 µM
  viability, T/C: 109%
Second compound 0.1 µM, first compound 0.003 µM
  viability, T/C: 99.4%
Second compound 0.1 µM, first compound 0.00949 µM
  viability, T/C: 83.3%
Second compound 0.1 µM, first compound 0.03 µM
  viability, T/C: 91.2%
Second compound 0.1 µM, first compound 0.0949 µM
  viability, T/C: 79.2%
Second compound 0.1 µM, first compound 0.3 µM
  viability, T/C: 63%
Second compound 0.316 µM, first compound 0.000949 µM
  viability, T/C: 26.1%
Second compound 0.316 µM, first compound 0.003 µM
  viability, T/C: 26.6%
Second compound 0.316 µM, first compound 0.00949 µM
  viability, T/C: 25.1%
Second compound 0.316 µM, first compound 0.03 µM
  viability, T/C: 26.5%
Second compound 0.316 µM, first compound 0.0949 µM
  viability, T/C: 23.7%
Second compound 0.316 µM, first compound 0.3 µM
  viability, T/C: 22.2%
Second compound 1 µM, first compound 0.000949 µM
  viability, T/C: 1.11%
Second compound 1 µM, first compound 0.003 µM
  viability, T/C: 1.28%
Second compound 1 µM, first compound 0.00949 µM
  viability, T/C: 2.15%
Second compound 1 µM, first compound 0.03 µM
  viability, T/C: 1.55%
Second compound 1 µM, first compound 0.0949 µM
  viability, T/C: 1.26%
Second compound 1 µM, first compound 0.3 µM
  viability, T/C: 1.63%
Second compound 3.16 µM, first compound 0.000949 µM
  viability, T/C: 0.48%
Second compound 3.16 µM, first compound 0.003 µM
  viability, T/C: 0.71%
Second compound 3.16 µM, first compound 0.00949 µM
  viability, T/C: 1.03%
Second compound 3.16 µM, first compound 0.03 µM
  viability, T/C: 0.37%
Second compound 3.16 µM, first compound 0.0949 µM
  viability, T/C: 0.75%
Second compound 3.16 µM, first compound 0.3 µM
  viability, T/C: 2.51%
Second compound 10 µM, first compound 0.000949 µM
  viability, T/C: 0.83%
Second compound 10 µM, first compound 0.003 µM
  viability, T/C: 1.36%
Second compound 10 µM, first compound 0.00949 µM
  viability, T/C: 1.97%
Second compound 10 µM, first compound 0.03 µM
  viability, T/C: 0.66%
Second compound 10 µM, first compound 0.0949 µM
  viability, T/C: 2.03%
Second compound 10 µM, first compound 0.3 µM
  viability, T/C: 0.56%

## CC(Nc1ccc2c(c1)OCCn1cc(N3C(=O)OCC3C(F)F)nc1-2)C(N)=O (stereo not drawn) + CN1CCN(c2cc(C(=O)Nc3cc4cc(-c5cnn(C)c5)ccc4cn3)ccn2)CC1
Second compound 0.0316 µM
  IC50: 5.17 µM
Second compound 0.1 µM
  IC50: 1.46 µM
Second compound 0.316 µM
  IC50: < 0.0316 µM
Second compound 1 µM
  IC50: < 0.0316 µM
Second compound 3.16 µM
  IC50: < 0.0316 µM
Second compound 10 µM
  IC50: < 0.0316 µM
[1]
  viability, T/C: 85.8%
[2]
  viability, T/C: 83.1%
[3]
  viability, T/C: 72.2%
[4]
  viability, T/C: 69.4%
[5]
  viability, T/C: 53.4%
[6]
  viability, T/C: 43.4%
[7]
  viability, T/C: 90%
[8]
  viability, T/C: 79.3%
[9]
  viability, T/C: 50.6%
[10]
  viability, T/C: 57.4%
[11]
  viability, T/C: 50.5%
[12]
  viability, T/C: 39.4%
[13]
  viability, T/C: 23.5%
[14]
  viability, T/C: 23.6%
[15]
  viability, T/C: 18.5%
[16]
  viability, T/C: 19.8%
[17]
  viability, T/C: 18.3%
[18]
  viability, T/C: 18.4%
[19]
  viability, T/C: 2.08%
[20]
  viability, T/C: 1.88%
[21]
  viability, T/C: 2.17%
[22]
  viability, T/C: 1.6%
[23]
  viability, T/C: 1.66%
[24]
  viability, T/C: 2.21%
[25]
  viability, T/C: 0.29%
[26]
  viability, T/C: 0.96%
[27]
  viability, T/C: 0.62%
[28]
  viability, T/C: 0.3%
[29]
  viability, T/C: 0.47%
[30]
  viability, T/C: 0.64%
[31]
  viability, T/C: 0.32%
[32]
  viability, T/C: 1.36%
[33]
  viability, T/C: 0.49%
[34]
  viability, T/C: 0.37%
[35]
  viability, T/C: 0.69%
[36]
  viability, T/C: 0.37%

## CCN1CCN(Cc2ccc(Nc3ncc(F)c(-c4cc(F)c5nc(C)n(C(C)C)c5c4)n3)nc2)CC1 + CN1CCN(c2cc(C(=O)Nc3cc4cc(-c5cnn(C)c5)ccc4cn3)ccn2)CC1
Second compound 0.0316 µM
  IC50: 0.364 µM
Second compound 0.1 µM
  IC50: 0.514 µM
Second compound 0.316 µM
  IC50: < 0.00316 µM
Second compound 1 µM
  IC50: < 0.00316 µM
Second compound 3.16 µM
  IC50: < 0.00316 µM
Second compound 10 µM
  IC50: < 0.00316 µM
Second compound 0.0316 µM, first compound 0.00316 µM
  viability, T/C: 107%
Second compound 0.0316 µM, first compound 0.01 µM
  viability, T/C: 78.2%
[1]
  viability, T/C: 84%
[2]
  viability, T/C: 66.3%
[3]
  viability, T/C: 48.8%
[4]
  viability, T/C: 39.5%
Second compound 0.1 µM, first compound 0.00316 µM
  viability, T/C: 98.1%
Second compound 0.1 µM, first compound 0.01 µM
  viability, T/C: 101%
[7]
  viability, T/C: 76.7%
[8]
  viability, T/C: 79.8%
[9]
  viability, T/C: 54.6%
[10]
  viability, T/C: 40.5%
Second compound 0.316 µM, first compound 0.00316 µM
  viability, T/C: 24.1%
Second compound 0.316 µM, first compound 0.01 µM
  viability, T/C: 28.6%
[13]
  viability, T/C: 26%
[14]
  viability, T/C: 22.9%
[15]
  viability, T/C: 24.4%
[16]
  viability, T/C: 24.4%
Second compound 1 µM, first compound 0.00316 µM
  viability, T/C: 1.06%
Second compound 1 µM, first compound 0.01 µM
  viability, T/C: 1.3%
[19]
  viability, T/C: 1.79%
[20]
  viability, T/C: 1.66%
[21]
  viability, T/C: 1.27%
[22]
  viability, T/C: 1.25%
Second compound 3.16 µM, first compound 0.00316 µM
  viability, T/C: 0.33%
Second compound 3.16 µM, first compound 0.01 µM
  viability, T/C: 0.44%
[25]
  viability, T/C: 1.09%
[26]
  viability, T/C: 0.39%
[27]
  viability, T/C: 2.28%
[28]
  viability, T/C: 2.3%
Second compound 10 µM, first compound 0.00316 µM
  viability, T/C: 1.2%
Second compound 10 µM, first compound 0.01 µM
  viability, T/C: 0.43%
[31]
  viability, T/C: 0.55%
[32]
  viability, T/C: 0.44%
[33]
  viability, T/C: 1.76%
[34]
  viability, T/C: 0.24%

## Nc1ccccc1NC(=O)c1ccc(CNC(=O)OCc2cccnc2)cc1 + CN1CCN(c2cc(C(=O)Nc3cc4cc(-c5cnn(C)c5)ccc4cn3)ccn2)CC1
Second compound 0.0316 µM
  IC50: 0.78 µM
Second compound 0.1 µM
  IC50: 0.822 µM
Second compound 0.316 µM
  IC50: < 0.0316 µM
Second compound 1 µM
  IC50: < 0.0316 µM
Second compound 3.16 µM
  IC50: < 0.0316 µM
Second compound 10 µM
  IC50: < 0.0316 µM
[1]
  viability, T/C: 103%
[2]
  viability, T/C: 90%
[3]
  viability, T/C: 76.3%
[4]
  viability, T/C: 42.4%
[5]
  viability, T/C: 16.2%
[6]
  viability, T/C: 1.31%
[7]
  viability, T/C: 109%
[8]
  viability, T/C: 103%
[9]
  viability, T/C: 90.8%
[10]
  viability, T/C: 38.9%
[11]
  viability, T/C: 17.7%
[12]
  viability, T/C: 0.84%
[13]
  viability, T/C: 30.4%
[14]
  viability, T/C: 28.1%
[15]
  viability, T/C: 29.1%
[16]
  viability, T/C: 19%
[17]
  viability, T/C: 3.98%
[18]
  viability, T/C: 0.15%
[19]
  viability, T/C: 1.55%
[20]
  viability, T/C: 1.77%
[21]
  viability, T/C: 1.31%
[22]
  viability, T/C: 0.3%
[23]
  viability, T/C: 0.25%
[24]
  viability, T/C: 0.12%
[25]
  viability, T/C: 0.38%
[26]
  viability, T/C: 0.95%
[27]
  viability, T/C: 0.9%
[28]
  viability, T/C: 0.39%
[29]
  viability, T/C: 0.52%
[30]
  viability, T/C: 0.62%
[31]
  viability, T/C: 0.58%
[32]
  viability, T/C: 0.42%
[33]
  viability, T/C: 0.45%
[34]
  viability, T/C: 0.3%
[35]
  viability, T/C: 0.62%
[36]
  viability, T/C: 0.76%
